Results from patent publication US6395768B1, “Uses for indole-3-propionic acids and salts and esters thereof” (South Alabama Medical Science Foundation, priority 1998, dated 2002).

Tests used:
PC12 cells = test: Lipid peroxidation (malondialdehyde levels) in cells exposed to Aβ or DDTC; type: cell-based, rat; details: PC12 cells exposed to amyloid peptide Aβ(1-42) or DDTC, with IPA; FIG. 4
Description: In order to investigate the possibility that the cytoprotective properties of IPA are also the result, at least in part, of anti-oxidant activity, the -levels of malondialdehyde (“MDA”), a marker of lipid peroxidation, in PC12 cells exposed to Aβ or to oxidative stress were examined. Oxidative stress was delivered by exposing cells to […] (“DDTC”), an inhibitor of superoxide dismutase and an established model of oxidative injury. The PC12 cells were exposed to either amyloid peptide alone or amyloid peptide along with IPA. In other experiments, the cells were exposed to either DDTC alone or DDTC with IPA.

Aβ (1-40) = Aβ (1-40) (Homo sapiens, UniProt P05067); test: Aβ fibrillogenesis, thioflavin T fluorescence (β sheet formation); type: biochemical; details: 150 μM Aβ (1-40), 300 μM IPA, sodium salt
Chain of Aβ (1-40) (P05067 672-711): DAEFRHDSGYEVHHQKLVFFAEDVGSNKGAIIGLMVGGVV
Method: As a control, the ultrapure water used to dissolve the IPA containing an equivalent amount of sodium chloride was added to 150 μM Aβ (1-40) at a pH of 7. In one experiment, each of the solutions (i.e., the solution containing IPA and the control solution) was incubated for 24 hours. In a second experiment, each of the solutions was incubated for 48 hours. At the end of each incubation period, 50 mM glycine-NaOH buffer (pH 9.2) containing 2 μM thioflavin T was added to each sample (5 μL) to a final volume of 2 mL. Fluorescence, which is a direct measure of β sheet formation, was measured at an excitation wavelength of 435 nm and an emission wavelength of 485 nm using a Hitachi F-2000 fluorescence spectrometer. The average and standard deviations of the mean of 3 samples per condition were determined, and the results are presented (as bar graphs) in FIG. 6A (24 hour incubation) and FIG. 6B (48 hour incubation).

PC12 neuroblastoma cells = test: Prevention of cell death induced by oxidative stress (DDTC, superoxide dismutase inhibition); type: cell-based, rat; details: varying amounts of DDTC and IPA, FIG. 5
Method: To further confirm the observations shown in Example 4, we studied whether IPA was effective in preventing death of cells exposed to oxidative stress (DDTC). PC12 neuroblastoma cells were treated with varying amounts of DDTC, with or without varying amounts of IPA. The anti-oxidant activity of IPA is shown by preventing cell death of neurblastoma cells induced by inhibition of the superoxide dismutase by DDTC.

[1] = tested on: human neuroblastoma cell line SK-N-SH; test: Cytoprotection against Aβ(25-35) toxicity, cell viability; type: cell-based; details: SK-N-SH cells, 50 μM Aβ (25-35), 50 μM compound; FIG. 1
Method: To illustrate the cytoprotective affects of IPA against the cytotoxic effects of Aβ, cells of the human neuroblastoma cell line SK-N-SH were used. These cells were exposed to 50 μM Aβ (25-35), the actively toxic fragment of Aβ (Yankner et al., 1990) with or without 50 μM of IPA. As a control, the experiments were repeated without Aβ. As a positive control, the well-known anti-oxidant, phenyl-N-t-butylnitrone (“PBN”) was substituted for IPA.

SMILES	production of malondialdehyde (MDA), marker of lipid peroxidation (PC12 cells)	thioflavin T fluorescence (β sheet formation) relative to control (Aβ (1-40); pH 7, 24 hour incubation, FIG. 6A)	thioflavin T fluorescence (β sheet formation) relative to control (Aβ (1-40); pH 7, 48 hour incubation, FIG. 6B)	survival of cells exposed to DDTC (PC12 neuroblastoma cells)	protective activity against cytotoxic effect of Aβ (viability, percent) [1]
O=C(O)CCc1c[nH]c2ccccc12 [IPA, indole-3-propionic acid]	significantly decreases the production of malondialdehyde	significantly less	significantly less	increases the survival of cells exposed to DDTC	
CC(C)(C)[N+]([O-])=Cc1ccccc1 [PBN, phenyl-N-t-butylnitrone]					strong protective activity
